System: sensitive M bovis strain
Type: cell-based, Mycobacterium bovis BCG

## NNC(=O)c1ccncc1 [INH, isoniazid]
  stress response (Impedance Response profile): varies with the drug concentration
